Results published in ChEMBL document CHEMBL4507325 (2021).

Columns and labels:
[1] = target: Beta-1 adrenergic receptor (Homo sapiens) (UniProt P08588); conditions: Compound concentration 10.0 uM
[2] = target: Type-1 angiotensin II receptor (Homo sapiens) (UniProt P30556); conditions: Compound concentration 10.0 uM
[3] = target: Muscarinic acetylcholine receptor M4 (Homo sapiens) (UniProt P08173); conditions: Compound concentration 10.0 uM
[4] = target: Histamine H4 receptor (Homo sapiens) (UniProt Q9H3N8); conditions: Compound concentration 10.0 uM
[5] = target: D(3) dopamine receptor (Homo sapiens) (UniProt P35462); conditions: Compound concentration 10.0 uM
[6] = target: Alpha-2B adrenergic receptor (Homo sapiens) (UniProt P18089); conditions: Compound concentration 10.0 uM
[7] = target: Estrogen receptor (Homo sapiens) (UniProt P03372); conditions: Compound concentration 10.0 uM
[8] = target: Histamine H2 receptor (Homo sapiens) (UniProt P25021); conditions: Compound concentration 10.0 uM
[9] = target: Delta-type opioid receptor (Homo sapiens) (UniProt P41143); conditions: Compound concentration 10.0 uM
[10] = target: Beta-2 adrenergic receptor (Homo sapiens) (UniProt P07550); conditions: Compound concentration 10.0 uM
[11] = target: 5-hydroxytryptamine receptor 2A (Homo sapiens) (UniProt P28223); conditions: Compound concentration 10.0 uM
[12] = target: Adenosine receptor A2a (Homo sapiens) (UniProt P29274); conditions: Compound concentration 10.0 uM
[13] = target: 5-hydroxytryptamine receptor 1A (Homo sapiens) (UniProt P08908); conditions: Compound concentration 10.0 uM
[14] = target: Sodium-dependent serotonin transporter (Homo sapiens) (UniProt P31645); conditions: Compound concentration 10.0 uM
[15] = target: GABA-A receptor; anion channel (Rattus norvegicus) (UniProt O09028+P15431+P18506+P18508+P19969+P20236+P23574+P23576+P28471+P28473+P30191+P62813+P63079+P63138+Q91ZM7+Q9ES14); conditions: Compound concentration 10.0 uM
[16] = target: 5-hydroxytryptamine receptor 1E (Homo sapiens) (UniProt P28566); conditions: Compound concentration 10.0 uM
Homo sapiens = organism: Homo sapiens; conditions: Compound concentration 10.0 uM
[17] = target: 5-hydroxytryptamine receptor 2C (Homo sapiens) (UniProt P28335); conditions: Compound concentration 10.0 uM
[18] = target: D(1A) dopamine receptor (Homo sapiens) (UniProt P21728); conditions: Compound concentration 10.0 uM
[19] = target: 5-hydroxytryptamine receptor 1A (Homo sapiens) (UniProt P08908); conditions: Compound concentration 10.0 uM; remark: listed apart in the source
[20] = target: Beta-1 adrenergic receptor (Homo sapiens) (UniProt P08588); conditions: Compound concentration 10.0 uM; remark: listed apart in the source
[21] = target: 5-hydroxytryptamine receptor 2B (Homo sapiens) (UniProt P41595); conditions: Compound concentration 10.0 uM
[22] = target: Kappa-type opioid receptor (Homo sapiens) (UniProt P41145); conditions: Compound concentration 10.0 uM
[23] = target: Glutamate NMDA receptor (Rattus norvegicus) (UniProt P35439+Q00959+Q00960+Q00961+Q62645+Q8VHN2+Q9R1M7); conditions: Compound concentration 10.0 uM
[24] = target: D(3) dopamine receptor (Homo sapiens) (UniProt P35462); conditions: Compound concentration 10.0 uM; remark: listed apart in the source
[25] = target: Aspartate aminotransferase, cytoplasmic (Homo sapiens, UniProt P17174); test: Aspartate transaminase assay (GOT1)
[26] = target: 5-hydroxytryptamine receptor 5A (Homo sapiens) (UniProt P47898); conditions: Compound concentration 10.0 uM
[27] = target: 5-hydroxytryptamine receptor 6 (Homo sapiens) (UniProt P50406); conditions: Compound concentration 10.0 uM
[28] = target: 5-hydroxytryptamine receptor 1D (Homo sapiens) (UniProt P28221); conditions: Compound concentration 10.0 uM
[29] = target: Histamine H1 receptor (Homo sapiens) (UniProt P35367); conditions: Compound concentration 10.0 uM
[30] = target: Alpha-2A adrenergic receptor (Homo sapiens) (UniProt P08913); conditions: Compound concentration 10.0 uM
[31] = target: Glucocorticoid receptor (Homo sapiens) (UniProt P04150); conditions: Compound concentration 10.0 uM
[32] = target: Endothelin-1 receptor (Homo sapiens) (UniProt P25101); conditions: Compound concentration 10.0 uM
[33] = target: Alpha-2B adrenergic receptor (Homo sapiens) (UniProt P18089); conditions: Compound concentration 10.0 uM; remark: listed apart in the source
[34] = target: Mu-type opioid receptor (Homo sapiens) (UniProt P35372); conditions: Compound concentration 10.0 uM
[35] = target: 5-hydroxytryptamine receptor 2B (Homo sapiens) (UniProt P41595); conditions: Compound concentration 10.0 uM; remark: listed apart in the source
[36] = target: Muscarinic acetylcholine receptor M1 (Homo sapiens) (UniProt P11229); conditions: Compound concentration 10.0 uM
[37] = target: Alpha-2C adrenergic receptor (Homo sapiens) (UniProt P18825); conditions: Compound concentration 10.0 uM
[38] = target: Sodium-dependent noradrenaline transporter (Homo sapiens) (UniProt P23975); conditions: Compound concentration 10.0 uM
[39] = target: Glutamate receptor 2 (Homo sapiens) (UniProt P42262); conditions: Rattus norvegicus; Compound concentration 10.0 uM
[40] = target: 5-hydroxytryptamine receptor 2C (Homo sapiens) (UniProt P28335); conditions: Compound concentration 10.0 uM; remark: listed apart in the source
[41] = target: Cannabinoid receptor 1 (Homo sapiens) (UniProt P21554); conditions: Compound concentration 10.0 uM
[42] = target: Beta-3 adrenergic receptor (Homo sapiens) (UniProt P13945); conditions: Compound concentration 10.0 uM
[43] = target: Muscarinic acetylcholine receptor M2 (Homo sapiens) (UniProt P08172); conditions: Compound concentration 10.0 uM
[44] = target: 5-hydroxytryptamine receptor 1B (Homo sapiens) (UniProt P28222); conditions: Compound concentration 10.0 uM
[45] = target: D(1B) dopamine receptor (Homo sapiens) (UniProt P21918); conditions: Compound concentration 10.0 uM

Alpha-2B adrenergic receptor (Homo sapiens), sequence (P18089 whole entry): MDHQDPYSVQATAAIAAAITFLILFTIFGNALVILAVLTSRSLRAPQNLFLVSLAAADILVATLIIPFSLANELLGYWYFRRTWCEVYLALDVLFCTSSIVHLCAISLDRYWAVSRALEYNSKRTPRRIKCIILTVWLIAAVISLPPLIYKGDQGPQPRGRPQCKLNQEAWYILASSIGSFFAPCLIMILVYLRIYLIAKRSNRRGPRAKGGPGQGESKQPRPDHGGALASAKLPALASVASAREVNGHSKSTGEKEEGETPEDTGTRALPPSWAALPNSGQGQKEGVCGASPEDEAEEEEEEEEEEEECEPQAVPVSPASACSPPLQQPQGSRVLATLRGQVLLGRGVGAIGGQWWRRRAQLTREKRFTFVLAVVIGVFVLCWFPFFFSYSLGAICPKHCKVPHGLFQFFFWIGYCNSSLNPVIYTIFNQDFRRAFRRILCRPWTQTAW
D(3) dopamine receptor (Homo sapiens), sequence (P35462 whole entry): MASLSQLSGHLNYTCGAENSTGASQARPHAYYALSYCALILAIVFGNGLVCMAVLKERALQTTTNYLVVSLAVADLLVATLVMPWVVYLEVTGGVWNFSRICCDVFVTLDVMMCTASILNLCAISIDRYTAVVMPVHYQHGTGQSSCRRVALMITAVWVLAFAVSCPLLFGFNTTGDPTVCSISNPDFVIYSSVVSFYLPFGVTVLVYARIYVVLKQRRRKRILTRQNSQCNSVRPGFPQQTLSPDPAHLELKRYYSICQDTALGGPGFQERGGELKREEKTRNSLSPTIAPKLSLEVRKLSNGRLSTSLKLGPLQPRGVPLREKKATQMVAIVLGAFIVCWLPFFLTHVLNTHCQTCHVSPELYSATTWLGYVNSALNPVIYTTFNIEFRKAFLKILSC
5-hydroxytryptamine receptor 1A (Homo sapiens), sequence (P08908 whole entry): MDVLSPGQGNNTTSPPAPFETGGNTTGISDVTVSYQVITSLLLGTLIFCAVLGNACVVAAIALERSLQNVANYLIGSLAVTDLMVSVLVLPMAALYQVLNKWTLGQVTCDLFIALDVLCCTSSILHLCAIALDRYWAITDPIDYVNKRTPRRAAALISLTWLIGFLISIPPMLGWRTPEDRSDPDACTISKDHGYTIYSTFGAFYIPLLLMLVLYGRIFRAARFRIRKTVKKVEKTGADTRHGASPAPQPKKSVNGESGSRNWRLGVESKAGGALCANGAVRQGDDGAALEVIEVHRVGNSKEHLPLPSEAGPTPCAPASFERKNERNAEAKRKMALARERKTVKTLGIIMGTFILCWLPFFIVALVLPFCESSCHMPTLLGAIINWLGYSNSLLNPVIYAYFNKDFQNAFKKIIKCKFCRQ
5-hydroxytryptamine receptor 2C (Homo sapiens), sequence (P28335 whole entry): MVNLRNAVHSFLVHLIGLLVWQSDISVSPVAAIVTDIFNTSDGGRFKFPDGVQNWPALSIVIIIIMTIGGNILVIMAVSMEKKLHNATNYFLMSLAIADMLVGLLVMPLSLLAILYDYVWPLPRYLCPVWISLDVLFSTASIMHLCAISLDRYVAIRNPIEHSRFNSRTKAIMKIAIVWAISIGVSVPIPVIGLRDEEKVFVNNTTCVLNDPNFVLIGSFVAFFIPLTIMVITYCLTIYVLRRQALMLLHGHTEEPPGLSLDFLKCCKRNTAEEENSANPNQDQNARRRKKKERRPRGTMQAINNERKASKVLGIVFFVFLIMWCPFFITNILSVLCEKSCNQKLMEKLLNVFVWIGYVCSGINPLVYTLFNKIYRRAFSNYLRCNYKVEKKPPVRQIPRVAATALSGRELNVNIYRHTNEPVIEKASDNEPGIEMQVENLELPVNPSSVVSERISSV
Beta-1 adrenergic receptor (Homo sapiens), sequence (P08588 whole entry, looked up): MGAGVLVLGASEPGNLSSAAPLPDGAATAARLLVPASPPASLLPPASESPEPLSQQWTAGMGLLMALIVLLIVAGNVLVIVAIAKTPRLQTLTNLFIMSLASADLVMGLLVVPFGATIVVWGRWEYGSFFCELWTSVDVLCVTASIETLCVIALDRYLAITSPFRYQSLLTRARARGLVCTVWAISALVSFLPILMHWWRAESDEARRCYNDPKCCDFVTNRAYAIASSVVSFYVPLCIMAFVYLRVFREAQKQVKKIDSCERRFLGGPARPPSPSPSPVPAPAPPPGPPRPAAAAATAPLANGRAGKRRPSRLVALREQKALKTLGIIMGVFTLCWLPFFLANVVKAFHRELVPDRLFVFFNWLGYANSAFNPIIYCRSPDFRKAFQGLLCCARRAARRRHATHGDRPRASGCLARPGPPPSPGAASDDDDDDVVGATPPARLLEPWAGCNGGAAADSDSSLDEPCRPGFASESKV
5-hydroxytryptamine receptor 2B (Homo sapiens), sequence (P41595 whole entry): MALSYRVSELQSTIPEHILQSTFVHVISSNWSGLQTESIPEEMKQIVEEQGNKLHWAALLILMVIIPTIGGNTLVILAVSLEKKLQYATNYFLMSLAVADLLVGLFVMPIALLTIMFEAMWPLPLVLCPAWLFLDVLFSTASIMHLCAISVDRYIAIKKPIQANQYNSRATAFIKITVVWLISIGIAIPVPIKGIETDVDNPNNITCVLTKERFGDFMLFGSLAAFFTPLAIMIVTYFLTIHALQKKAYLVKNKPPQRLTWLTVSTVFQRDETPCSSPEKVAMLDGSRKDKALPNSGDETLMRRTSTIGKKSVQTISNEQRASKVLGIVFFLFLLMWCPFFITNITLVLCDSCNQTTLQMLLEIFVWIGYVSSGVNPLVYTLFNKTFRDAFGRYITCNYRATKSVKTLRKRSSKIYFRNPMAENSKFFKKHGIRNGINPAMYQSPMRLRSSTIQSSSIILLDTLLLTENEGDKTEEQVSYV
Mu-type opioid receptor (Homo sapiens), sequence (P35372 whole entry): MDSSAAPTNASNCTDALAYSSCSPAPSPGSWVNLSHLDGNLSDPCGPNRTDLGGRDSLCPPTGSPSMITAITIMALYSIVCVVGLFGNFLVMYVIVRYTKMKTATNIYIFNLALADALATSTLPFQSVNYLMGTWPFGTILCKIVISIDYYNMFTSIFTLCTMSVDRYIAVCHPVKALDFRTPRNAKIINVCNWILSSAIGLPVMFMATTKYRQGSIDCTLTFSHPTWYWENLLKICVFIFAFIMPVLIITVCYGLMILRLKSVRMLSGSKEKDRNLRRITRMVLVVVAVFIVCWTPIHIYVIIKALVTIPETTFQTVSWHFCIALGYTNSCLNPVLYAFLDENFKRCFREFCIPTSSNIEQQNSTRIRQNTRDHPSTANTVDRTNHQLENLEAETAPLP
Estrogen receptor (Homo sapiens), sequence (P03372 whole entry): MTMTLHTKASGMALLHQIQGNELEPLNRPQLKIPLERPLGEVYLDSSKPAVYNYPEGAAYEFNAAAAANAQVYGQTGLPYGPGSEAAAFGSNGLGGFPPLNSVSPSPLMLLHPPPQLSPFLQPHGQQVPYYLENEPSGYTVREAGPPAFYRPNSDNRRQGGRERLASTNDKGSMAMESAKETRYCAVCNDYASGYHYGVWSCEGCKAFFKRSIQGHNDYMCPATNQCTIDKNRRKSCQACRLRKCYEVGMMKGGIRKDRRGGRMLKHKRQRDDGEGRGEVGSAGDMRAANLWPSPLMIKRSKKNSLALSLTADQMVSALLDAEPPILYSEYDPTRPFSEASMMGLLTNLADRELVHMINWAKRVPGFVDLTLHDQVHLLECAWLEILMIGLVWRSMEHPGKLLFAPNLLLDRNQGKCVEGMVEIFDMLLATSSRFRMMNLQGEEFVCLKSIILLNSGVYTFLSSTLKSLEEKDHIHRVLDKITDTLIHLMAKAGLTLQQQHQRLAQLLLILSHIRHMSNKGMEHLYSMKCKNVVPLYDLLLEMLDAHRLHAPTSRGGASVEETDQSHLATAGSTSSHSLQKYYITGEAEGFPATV
5-hydroxytryptamine receptor 1D (Homo sapiens), sequence (P28221 whole entry): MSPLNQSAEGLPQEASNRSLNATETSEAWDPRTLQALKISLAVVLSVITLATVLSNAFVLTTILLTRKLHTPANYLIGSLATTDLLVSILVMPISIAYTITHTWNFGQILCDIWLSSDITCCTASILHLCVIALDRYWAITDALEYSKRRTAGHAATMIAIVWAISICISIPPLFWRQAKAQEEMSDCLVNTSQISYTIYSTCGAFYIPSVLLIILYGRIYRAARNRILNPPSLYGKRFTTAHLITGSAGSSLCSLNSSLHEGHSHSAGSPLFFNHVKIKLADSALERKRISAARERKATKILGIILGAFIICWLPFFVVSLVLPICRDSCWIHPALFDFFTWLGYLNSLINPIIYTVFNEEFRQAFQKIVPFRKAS
Sodium-dependent serotonin transporter (Homo sapiens), sequence (P31645 whole entry, looked up): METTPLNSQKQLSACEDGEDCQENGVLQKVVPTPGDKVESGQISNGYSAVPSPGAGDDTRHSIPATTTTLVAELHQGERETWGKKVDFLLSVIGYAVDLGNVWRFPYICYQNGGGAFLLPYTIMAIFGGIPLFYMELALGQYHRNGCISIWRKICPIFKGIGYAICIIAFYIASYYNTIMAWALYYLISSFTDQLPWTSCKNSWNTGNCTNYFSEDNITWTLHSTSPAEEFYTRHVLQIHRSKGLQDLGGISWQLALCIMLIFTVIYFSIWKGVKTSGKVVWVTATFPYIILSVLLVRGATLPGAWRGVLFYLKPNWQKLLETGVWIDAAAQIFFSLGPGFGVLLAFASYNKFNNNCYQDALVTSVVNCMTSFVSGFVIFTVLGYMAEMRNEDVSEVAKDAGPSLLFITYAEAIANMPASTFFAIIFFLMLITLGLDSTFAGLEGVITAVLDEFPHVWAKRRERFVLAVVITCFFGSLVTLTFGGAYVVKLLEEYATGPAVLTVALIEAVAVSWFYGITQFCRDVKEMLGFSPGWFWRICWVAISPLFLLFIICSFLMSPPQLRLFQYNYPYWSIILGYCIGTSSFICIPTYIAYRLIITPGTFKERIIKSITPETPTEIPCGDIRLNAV

Cc1ccccc1Oc1cc(-n2c(=O)cc(C(F)(F)F)[nH]c2=O)c2ccccc2c1Cl [BAY-069]
inhibition [1]: -5.52%
inhibition [2]: 7%
inhibition [3]: -5%
inhibition [4]: -6.41%
inhibition [5]: 14%
inhibition [6]: -8.63%
inhibition [7]: 6%
inhibition [8]: -2%
inhibition [9]: 14.5%
inhibition [10]: 11.2%
inhibition [11]: -2.88%
inhibition [12]: -6%
inhibition [13]: 8.88%
inhibition [14]: 3%
inhibition [15]: 16.3%
inhibition [16]: 4.31%
inhibition (Homo sapiens): -8%
inhibition [17]: 3%
inhibition [18]: 7%
inhibition [19]: 9%
inhibition [20]: 3%
inhibition [21]: -0.49%
inhibition [22]: 37.5%
inhibition [23]: 11%
inhibition [24]: 8.85%
IC50 [25]: > 50 µM (not active)
inhibition [26]: 5.61%
inhibition [27]: 13%
inhibition [28]: 0.75%
inhibition [29]: -2%
inhibition [30]: 2%
inhibition [31]: 13%
inhibition [32]: -2%
inhibition [33]: -2%
inhibition [34]: 0%
inhibition [35]: 1%
inhibition [36]: 17.8%
inhibition [37]: 6%
inhibition [38]: 22%
inhibition [39]: 11%
inhibition [40]: 0.89%
inhibition [41]: 16%
inhibition [42]: 22.9%
inhibition [43]: 4%
inhibition [44]: 4.02%
inhibition [45]: 18.7%
